Assay results: publication PMC6891286, “Towards the Development of an In vivo Chemical Probe for Cyclin G Associated Kinase (GAK)” (Molecules, 2019)

Assays:
Assay in all cases: KINOMEscan
Type in all cases: binding
ERBB4 = molecular target: T1, ERBB4 (Homo sapiens, UniProt Q15303); settings: 35 at 1 µM; read-out: % inhibition
T1 construct: purchased Eurofins DiscoverX (KINOMEscan)
Experimental: (§1) KinomeScan Assay on 35 was performed as previously described at EuroFins DiscoverX (Fremont, CA, USA).

WEE2 = molecular target: T2, WEE2 (Homo sapiens, UniProt P0C1S8); settings: 35 at 1 µM; read-out: % inhibition
T2 construct: purchased Eurofins DiscoverX (KINOMEscan)
Experimental: as §1

ERN1 = molecular target: T3, ERN1 (Homo sapiens, UniProt O75460); settings: 35 at 1 µM; read-out: % inhibition
T3 construct: purchased Eurofins DiscoverX (KINOMEscan)
Experimental: as §1

AURKA = molecular target: T4, AURKA (Homo sapiens, UniProt O14965); settings: 35 at 1 µM; read-out: % inhibition
T4 construct: purchased Eurofins DiscoverX (KINOMEscan)
Experimental: as §1

EGFR(G719C) = molecular target: T5, EGFR(G719C) (Homo sapiens, UniProt P00533, G719C); settings: 35 at 1 µM; read-out: % inhibition
T5 construct: purchased Eurofins DiscoverX (KINOMEscan)
Experimental: as §1

PIM3 = molecular target: T6, PIM3 (Homo sapiens, UniProt Q86V86); settings: 35 at 1 µM; read-out: % inhibition
T6 construct: purchased Eurofins DiscoverX (KINOMEscan)
Experimental: as §1

DAPK3 = molecular target: T7, DAPK3 (Homo sapiens, UniProt O43293); settings: 35 at 1 µM; read-out: % inhibition
T7 construct: purchased Eurofins DiscoverX (KINOMEscan)
Experimental: as §1

[1] = molecular target: T8, ABL1(Y253F)-phosphorylated (Homo sapiens, UniProt P00519, Y253F); settings: 35 at 1 µM; read-out: % inhibition
T8 construct: purchased Eurofins DiscoverX (KINOMEscan)
Experimental: as §1

MLK2 = molecular target: T9, MLK2 (Homo sapiens, UniProt Q02779); settings: 35 at 1 µM; read-out: % inhibition
T9 construct: purchased Eurofins DiscoverX (KINOMEscan)
Experimental: as §1

[2] = molecular target: T10, RSK1(Kin.Dom.1-N-terminal) (Homo sapiens, UniProt Q15418); settings: 35 at 1 µM; read-out: % inhibition
T10 construct: RSK1(Kin.Dom.1-N-terminal); purchased Eurofins DiscoverX (KINOMEscan)
Experimental: as §1

YANK3 = molecular target: T11, YANK3 (Homo sapiens, UniProt Q86UX6); settings: 35 at 1 µM; read-out: % inhibition
T11 construct: purchased EuroFins DiscoverX (Fremont, CA, USA)
Experimental: as §1

HUNK = molecular target: T12, HUNK (Homo sapiens, UniProt P57058); settings: 35 at 1 µM; read-out: % inhibition
T12 construct: purchased Eurofins DiscoverX (KINOMEscan)
Experimental: as §1

ROCK1 = molecular target: T13, ROCK1 (Homo sapiens, UniProt Q13464); settings: 35 at 1 µM; read-out: % inhibition
T13 construct: purchased Eurofins DiscoverX (KINOMEscan)
Experimental: as §1

MEK6 = molecular target: T14, MEK6 (Homo sapiens, UniProt P52564); settings: 35 at 1 µM; read-out: % inhibition
T14 construct: purchased Eurofins DiscoverX (KINOMEscan)
Experimental: as §1

MYLK = molecular target: T15, MYLK (Homo sapiens, UniProt Q15746); settings: 35 at 1 µM; read-out: % inhibition
T15 construct: purchased Eurofins DiscoverX (KINOMEscan)
Experimental: as §1

MARK1 = molecular target: T16, MARK1 (Homo sapiens, UniProt Q9P0L2); settings: 35 at 1 µM; read-out: % inhibition
T16 construct: purchased Eurofins DiscoverX (KINOMEscan)
Experimental: as §1

MYO3B = molecular target: T17, MYO3B (Homo sapiens, UniProt Q8WXR4); settings: 35 at 1 µM; read-out: % inhibition
T17 construct: purchased Eurofins DiscoverX (KINOMEscan)
Experimental: as §1

PAK7 = molecular target: T18, PAK7 (Homo sapiens, UniProt Q9P286); settings: 35 at 1 µM; read-out: % inhibition
T18 construct: purchased Eurofins DiscoverX (KINOMEscan)
Experimental: as §1

MUSK = molecular target: T19, MUSK (Homo sapiens, UniProt O15146); settings: 35 at 1 µM; read-out: % inhibition
T19 construct: purchased Eurofins DiscoverX (KINOMEscan)
Experimental: as §1

CSNK1G2 = molecular target: T20, CSNK1G2 (Homo sapiens, UniProt P78368); settings: 35 at 1 µM; read-out: % inhibition
T20 construct: purchased Eurofins DiscoverX (KINOMEscan)
Experimental: as §1

MELK = molecular target: T21, MELK (Homo sapiens, UniProt Q14680); settings: 35 at 1 µM; read-out: % inhibition
T21 construct: purchased Eurofins DiscoverX (KINOMEscan)
Experimental: as §1

TTK = molecular target: T22, TTK (Homo sapiens, UniProt P33981); settings: 35 at 1 µM; read-out: % inhibition
T22 construct: purchased Eurofins DiscoverX (KINOMEscan)
Experimental: as §1

TRKA = molecular target: T23, TRKA (Homo sapiens, UniProt P04629); settings: 35 at 1 µM; read-out: % inhibition
T23 construct: purchased Eurofins DiscoverX (KINOMEscan)
Experimental: as §1

PLK4 = molecular target: T24, PLK4 (Homo sapiens, UniProt O00444); settings: 35 at 1 µM; read-out: % inhibition
T24 construct: purchased Eurofins DiscoverX (KINOMEscan)
Experimental: as §1

MARK4 = molecular target: T25, MARK4 (Homo sapiens, UniProt Q96L34); settings: 35 at 1 µM; read-out: % inhibition
T25 construct: purchased Eurofins DiscoverX (KINOMEscan)
Experimental: as §1

RIPK4 = molecular target: T26, RIPK4 (Homo sapiens, UniProt P57078); settings: 35 at 1 µM; read-out: % inhibition
T26 construct: purchased Eurofins DiscoverX (KINOMEscan)
Experimental: as §1

PFCDPK1(P.falciparum) = molecular target: T27, PFCDPK1(P.falciparum) (Plasmodium falciparum, UniProt P62344); settings: read-out: % inhibition
T27 construct: purchased Eurofins DiscoverX (KINOMEscan)
Experimental: as §1

ERK1 = molecular target: T28, ERK1 (Homo sapiens, UniProt P27361); settings: 35 at 1 µM; read-out: % inhibition
T28 construct: purchased Eurofins DiscoverX (KINOMEscan)
Experimental: as §1

MST3 = molecular target: T29, MST3 (Homo sapiens, UniProt Q9Y6E0); settings: 35 at 1 µM; read-out: % inhibition
T29 construct: purchased Eurofins DiscoverX (KINOMEscan)
Experimental: as §1

MAP3K3 = molecular target: T30, MAP3K3 (Homo sapiens, UniProt Q99759); settings: 35 at 1 µM; read-out: % inhibition
T30 construct: purchased Eurofins DiscoverX (KINOMEscan)
Experimental: as §1

PIK3CB = molecular target: T31, PIK3CB (Homo sapiens, UniProt P42338); settings: 35 at 1 µM; read-out: % inhibition
T31 construct: purchased Eurofins DiscoverX (KINOMEscan)
Experimental: as §1

PDGFRB = molecular target: T32, PDGFRB (Homo sapiens, UniProt P09619); settings: 35 at 1 µM; read-out: % inhibition
T32 construct: purchased Eurofins DiscoverX (KINOMEscan)
Experimental: as §1

GRK7 = molecular target: T33, GRK7 (Homo sapiens, UniProt Q8WTQ7); settings: 35 at 1 µM; read-out: % inhibition
T33 construct: purchased Eurofins DiscoverX (KINOMEscan)
Experimental: as §1

DCAMKL3 = molecular target: T34, DCAMKL3 (Homo sapiens, UniProt Q9C098); settings: 35 at 1 µM; read-out: % inhibition
T34 construct: purchased Eurofins DiscoverX (KINOMEscan)
Experimental: as §1

CLK2 = molecular target: T35, CLK2 (Homo sapiens, UniProt P49760); settings: 35 at 1 µM; read-out: % inhibition
T35 construct: purchased Eurofins DiscoverX (KINOMEscan)
Experimental: as §1

AXL = molecular target: T36, AXL (Homo sapiens, UniProt P30530); settings: 35 at 1 µM; read-out: % inhibition
T36 construct: purchased Eurofins DiscoverX (KINOMEscan)
Experimental: as §1

TRKB = molecular target: T37, TRKB (Homo sapiens, UniProt Q16620); settings: 35 at 1 µM; read-out: % inhibition
T37 construct: purchased Eurofins DiscoverX (KINOMEscan)
Experimental: as §1

PIK3CA(Q546K) = molecular target: T38, PIK3CA(Q546K) (Homo sapiens, UniProt P42336, Q546K); settings: 35 at 1 µM; read-out: % inhibition
T38 construct: purchased Eurofins DiscoverX (KINOMEscan)
Experimental: as §1

PIP5K1A = molecular target: T39, PIP5K1A (Homo sapiens, UniProt Q99755); settings: 35 at 1 µM; read-out: % inhibition
T39 construct: purchased Eurofins DiscoverX (KINOMEscan)
Experimental: as §1

MET(Y1235D) = molecular target: T40, MET(Y1235D) (Homo sapiens, UniProt P08581, Y1235D); settings: 35 at 1 µM; read-out: % inhibition
T40 construct: purchased Eurofins DiscoverX (KINOMEscan)
Experimental: as §1

PRKCI = molecular target: T41, PRKCI (Homo sapiens, UniProt P41743); settings: 35 at 1 µM; read-out: % inhibition
T41 construct: purchased Eurofins DiscoverX (KINOMEscan)
Experimental: as §1

FLT3(N841I) = molecular target: T42, FLT3(N841I) (Homo sapiens, UniProt P36888, N841I); settings: 35 at 1 µM; read-out: % inhibition
T42 construct: purchased Eurofins DiscoverX (KINOMEscan)
Experimental: as §1

Measured: activity at 1 µM

T9 sequence (Q02779 whole entry): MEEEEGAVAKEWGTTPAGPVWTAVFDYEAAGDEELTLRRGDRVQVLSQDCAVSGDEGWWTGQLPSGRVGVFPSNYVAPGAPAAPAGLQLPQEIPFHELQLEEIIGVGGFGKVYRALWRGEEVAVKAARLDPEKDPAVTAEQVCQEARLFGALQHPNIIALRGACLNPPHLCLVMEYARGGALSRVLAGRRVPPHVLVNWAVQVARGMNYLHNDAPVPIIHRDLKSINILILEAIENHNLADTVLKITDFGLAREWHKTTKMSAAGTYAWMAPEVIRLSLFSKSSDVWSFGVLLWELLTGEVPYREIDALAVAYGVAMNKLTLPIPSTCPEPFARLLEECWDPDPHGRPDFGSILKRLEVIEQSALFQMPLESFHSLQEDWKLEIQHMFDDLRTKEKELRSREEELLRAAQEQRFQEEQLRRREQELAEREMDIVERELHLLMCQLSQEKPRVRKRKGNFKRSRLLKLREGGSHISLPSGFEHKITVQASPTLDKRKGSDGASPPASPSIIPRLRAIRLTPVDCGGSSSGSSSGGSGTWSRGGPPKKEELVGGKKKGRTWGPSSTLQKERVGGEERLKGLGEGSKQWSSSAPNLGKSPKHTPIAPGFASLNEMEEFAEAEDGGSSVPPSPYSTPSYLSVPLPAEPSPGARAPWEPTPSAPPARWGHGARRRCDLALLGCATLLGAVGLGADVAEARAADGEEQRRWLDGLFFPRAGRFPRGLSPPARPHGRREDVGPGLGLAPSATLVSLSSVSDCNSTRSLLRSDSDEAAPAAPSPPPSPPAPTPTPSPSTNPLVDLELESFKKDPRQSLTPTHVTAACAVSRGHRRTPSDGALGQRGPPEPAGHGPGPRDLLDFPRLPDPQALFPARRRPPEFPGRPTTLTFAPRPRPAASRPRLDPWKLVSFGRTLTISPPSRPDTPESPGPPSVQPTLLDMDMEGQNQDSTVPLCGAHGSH
T38 sequence (P42336 whole entry Q546K): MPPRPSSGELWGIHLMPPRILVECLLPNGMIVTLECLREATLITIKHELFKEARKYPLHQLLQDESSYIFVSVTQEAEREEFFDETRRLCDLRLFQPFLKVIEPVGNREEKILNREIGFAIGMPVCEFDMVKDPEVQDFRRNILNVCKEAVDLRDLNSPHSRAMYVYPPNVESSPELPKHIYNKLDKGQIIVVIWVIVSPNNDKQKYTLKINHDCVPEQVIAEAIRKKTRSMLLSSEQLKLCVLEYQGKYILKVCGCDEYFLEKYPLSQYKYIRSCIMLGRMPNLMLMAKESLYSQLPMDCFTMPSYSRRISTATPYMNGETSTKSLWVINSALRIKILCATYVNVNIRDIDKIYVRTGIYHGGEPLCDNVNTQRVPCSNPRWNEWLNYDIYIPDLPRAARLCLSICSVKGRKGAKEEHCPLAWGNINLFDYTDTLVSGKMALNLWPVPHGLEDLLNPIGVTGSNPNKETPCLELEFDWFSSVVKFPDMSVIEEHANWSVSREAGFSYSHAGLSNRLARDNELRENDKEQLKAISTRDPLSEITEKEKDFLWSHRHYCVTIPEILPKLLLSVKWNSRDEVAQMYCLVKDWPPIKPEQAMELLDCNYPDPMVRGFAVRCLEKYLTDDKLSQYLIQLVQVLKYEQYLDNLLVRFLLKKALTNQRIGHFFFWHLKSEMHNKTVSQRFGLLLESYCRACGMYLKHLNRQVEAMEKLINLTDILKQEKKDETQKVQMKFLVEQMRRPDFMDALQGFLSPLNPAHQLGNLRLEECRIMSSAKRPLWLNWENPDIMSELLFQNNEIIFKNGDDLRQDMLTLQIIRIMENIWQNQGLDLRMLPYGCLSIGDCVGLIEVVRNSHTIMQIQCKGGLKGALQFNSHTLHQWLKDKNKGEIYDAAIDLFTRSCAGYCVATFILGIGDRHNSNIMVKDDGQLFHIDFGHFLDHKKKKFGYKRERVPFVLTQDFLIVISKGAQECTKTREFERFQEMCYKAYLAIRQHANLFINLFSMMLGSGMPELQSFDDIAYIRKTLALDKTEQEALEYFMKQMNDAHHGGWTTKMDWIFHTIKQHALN
T16 sequence (Q9P0L2 whole entry): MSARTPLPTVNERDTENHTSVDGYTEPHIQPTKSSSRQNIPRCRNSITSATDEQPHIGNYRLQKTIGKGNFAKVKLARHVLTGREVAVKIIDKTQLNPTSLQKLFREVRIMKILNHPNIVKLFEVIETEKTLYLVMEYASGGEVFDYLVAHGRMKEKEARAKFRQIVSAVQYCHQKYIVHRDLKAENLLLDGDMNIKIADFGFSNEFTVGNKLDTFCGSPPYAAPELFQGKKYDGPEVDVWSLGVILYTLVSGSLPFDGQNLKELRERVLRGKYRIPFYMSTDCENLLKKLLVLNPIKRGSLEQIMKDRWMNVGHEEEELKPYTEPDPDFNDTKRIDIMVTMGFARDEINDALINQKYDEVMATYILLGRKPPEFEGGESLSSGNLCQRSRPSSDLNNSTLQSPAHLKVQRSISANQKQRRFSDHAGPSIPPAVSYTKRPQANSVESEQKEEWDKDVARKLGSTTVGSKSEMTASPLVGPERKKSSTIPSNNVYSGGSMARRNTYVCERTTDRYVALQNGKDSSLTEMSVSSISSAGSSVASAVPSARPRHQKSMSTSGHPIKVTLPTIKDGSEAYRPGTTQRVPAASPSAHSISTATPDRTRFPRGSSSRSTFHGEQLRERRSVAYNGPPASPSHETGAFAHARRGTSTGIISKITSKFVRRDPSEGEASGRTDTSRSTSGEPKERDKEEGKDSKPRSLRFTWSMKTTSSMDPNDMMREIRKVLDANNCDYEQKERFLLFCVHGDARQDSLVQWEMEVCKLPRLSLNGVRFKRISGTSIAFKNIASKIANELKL
T29 sequence (Q9Y6E0 whole entry): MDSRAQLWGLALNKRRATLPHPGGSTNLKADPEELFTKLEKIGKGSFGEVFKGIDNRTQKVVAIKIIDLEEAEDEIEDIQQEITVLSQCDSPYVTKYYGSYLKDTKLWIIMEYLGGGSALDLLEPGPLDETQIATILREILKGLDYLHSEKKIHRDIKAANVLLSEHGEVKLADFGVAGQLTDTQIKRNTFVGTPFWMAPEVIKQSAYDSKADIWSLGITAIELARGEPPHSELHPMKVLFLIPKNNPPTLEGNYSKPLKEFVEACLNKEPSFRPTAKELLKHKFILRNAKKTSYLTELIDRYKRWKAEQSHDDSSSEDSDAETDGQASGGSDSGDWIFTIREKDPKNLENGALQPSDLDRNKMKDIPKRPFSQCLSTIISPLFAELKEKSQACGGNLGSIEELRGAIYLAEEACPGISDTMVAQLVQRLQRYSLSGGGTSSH
T14 sequence (P52564 whole entry): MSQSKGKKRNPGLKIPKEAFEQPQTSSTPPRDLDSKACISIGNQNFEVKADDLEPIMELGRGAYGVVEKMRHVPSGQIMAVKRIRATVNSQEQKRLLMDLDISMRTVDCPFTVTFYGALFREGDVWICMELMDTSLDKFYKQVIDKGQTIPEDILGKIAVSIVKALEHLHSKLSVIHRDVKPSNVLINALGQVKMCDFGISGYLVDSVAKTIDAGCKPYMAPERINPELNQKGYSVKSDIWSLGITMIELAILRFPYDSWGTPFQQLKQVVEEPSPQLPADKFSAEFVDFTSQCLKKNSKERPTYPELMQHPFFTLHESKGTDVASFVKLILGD
T21 sequence (Q14680 whole entry): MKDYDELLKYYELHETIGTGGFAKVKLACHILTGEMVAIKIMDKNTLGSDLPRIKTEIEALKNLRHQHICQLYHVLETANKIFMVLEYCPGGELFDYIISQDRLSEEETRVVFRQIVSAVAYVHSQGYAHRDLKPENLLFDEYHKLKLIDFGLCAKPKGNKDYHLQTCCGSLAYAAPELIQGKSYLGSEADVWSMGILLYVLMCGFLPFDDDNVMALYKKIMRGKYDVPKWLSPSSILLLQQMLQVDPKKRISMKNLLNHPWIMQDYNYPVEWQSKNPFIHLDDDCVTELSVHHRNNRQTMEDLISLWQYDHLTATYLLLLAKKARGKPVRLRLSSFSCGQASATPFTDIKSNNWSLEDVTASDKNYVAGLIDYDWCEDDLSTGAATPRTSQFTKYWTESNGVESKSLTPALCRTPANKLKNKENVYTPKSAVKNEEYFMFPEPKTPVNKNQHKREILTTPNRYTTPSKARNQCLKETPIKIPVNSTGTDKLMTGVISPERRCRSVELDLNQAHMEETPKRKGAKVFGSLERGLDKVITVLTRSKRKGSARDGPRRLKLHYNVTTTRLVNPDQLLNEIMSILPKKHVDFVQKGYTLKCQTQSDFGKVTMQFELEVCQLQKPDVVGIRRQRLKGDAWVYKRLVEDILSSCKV
T20 sequence (P78368 whole entry): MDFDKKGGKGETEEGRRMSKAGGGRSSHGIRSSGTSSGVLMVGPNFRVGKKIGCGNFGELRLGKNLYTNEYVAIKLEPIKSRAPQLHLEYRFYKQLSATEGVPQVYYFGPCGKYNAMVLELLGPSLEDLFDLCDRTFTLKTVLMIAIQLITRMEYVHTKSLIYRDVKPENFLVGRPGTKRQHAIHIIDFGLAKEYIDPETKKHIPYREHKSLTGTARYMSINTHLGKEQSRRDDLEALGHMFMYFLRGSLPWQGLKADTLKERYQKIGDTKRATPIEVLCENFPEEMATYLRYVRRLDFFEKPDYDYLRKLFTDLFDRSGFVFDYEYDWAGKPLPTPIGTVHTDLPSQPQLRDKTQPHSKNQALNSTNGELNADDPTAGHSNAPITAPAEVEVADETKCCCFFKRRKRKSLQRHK

Brc1ccc2nccc(Nc3ccc4cn[nH]c4c3)c2c1 [Compound 35, 6-Bromo-N-(1H-indazol-6-yl)quinolin-4-amine]
97%: WEE2
83%: EGFR(G719C)
60%: PRKCI
86%: CLK2
94%: PIK3CB
88%: DAPK3
71%: ROCK1
90%: FLT3(N841I)
85%: TRKB
63%: PFCDPK1(P.falciparum)
99%: DCAMKL3
91%: ERN1
100%: all other assays above
